Assay results from US9624215B2, “Amine derivative or salt thereof” (TOYAMA CHEMICAL CO., LTD., priority 2012, dated 2017).

Tests used:
[1] = system: TPA-induced ear edema and acanthosis in Balb/c mice; assay: Mouse TPA-induced ear-swelling model; type: in vivo; details: topical, 240 h, 1% w/v solution, 20 μL applied to ear once a day from day 0 to day 9, female Balb/c mice, read-out: Inhibition rate of change in ear thickness on day 10
Description: Seven-week-old female Balb/c mice (Charles River Laboratories Japan) were used. 20 μL of a 20 ng/mL solution of TPA (Wako Pure Chemical Industries, 162-23591) dissolved in 5% DMSO/acetone was applied to the outer side of the mouse ear on day 0, day 2, day 4, day 7 and day 9 to induce ear edema and acanthosis. The test compound was dissolved in a 5% DMSO/acetone solution (concentration: 1% w/v) and 20 μL of the resulting solution was applied to the outer side of the ear once a day from day 0 to day 9. For the control group, a 5% DMSO/acetone solution was similarly applied. The TPA solution and the test compound solution were mixed and applied on the days for TPA application (day 0, day 2, day 4, day 7 and day 9). The ear thickness was chronologically measured on days 0-4 and days 7-10 using a micrometer (Mitutoyo, MDC-25MJT). The change in ear thickness and the inhibition rate were determined by the following formulas. Change in ear thickness=(ear thickness measured on day 10)−(ear thickness measured on day 0 before TPA application) Inhibition rate (%)=100−(change in ear thickness for test compound group/change in ear thickness for control group)×100

[2] = system: normal human neonatal foreskin epidermal keratinocytes (NHEK-F); assay: Cell proliferation inhibition test; type: cell-based; details: Keratinocyte, 72 h, NHEK-F cells, three days incubation, ATPlite or CellTiterGlo, read-out: IC50 (concentration of the compound at which the cell count is reduced by 50%)
How it was run: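 IC50 is the compound level halving cell count relative to untreated wells, with counts from ATP-based luminescence (ATPlite or CellTiterGlo). Readout followed 3 days of compound exposure of overnight-attached neonatal foreskin keratinocytes (2×10^3/well, Humedia-EG2 medium).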

SMILES	inhibition in vivo at 1 % strength [1] [%]	IC50 [2] [nM]
CC(C)Cn1ccc2cc(Nc3ncc(C4CC4)cc3C(=O)O)ccc21 [Example 126, 2-((1-isobutyl-1H-indol-5-yl)amino)-5-cyclopropylnicotinic acid]	≥ 20	≤ 10
O=C(O)c1cc(C2CCCC2)cnc1Nc1ccc2c(ccn2Cc2ccccc2)c1 [Example 128, 2-((1-benzyl-1H-indol-5-yl)amino)-5-cyclopentylnicotinic acid]	≥ 20	–
O=C(O)c1cc(C2CC2)cnc1Nc1ccc2c(ccn2CC2CCCCC2)c1 [Example 130, 2-((1-(cyclohexylmethyl)-1H-indol-5-yl)amino)-5-cyclopropylnicotinic acid]	≥ 20	≤ 10
O=C(O)c1cc(C2CC2)cnc1Nc1ccc2c(ccn2CC2CCC2)c1 [Example 133, 2-((1-(cyclobutylmethyl)-1H-indol-5-yl)amino)-5-cyclopropylnicotinic acid]	≥ 20	≤ 10
O=C(O)c1cc(C2CC2)cnc1Nc1ccc2c(ccn2CC2CCCC2)c1 [Example 138, 2-((1-(cyclopentylmethyl)-1H-indol-5-yl)amino)-5-cyclopropylnicotinic acid]	≥ 20	≤ 10
CCn1c(-c2ccccc2)cc2cc(Nc3ncc(C4CC4)cc3C(=O)O)ccc21 [Example 142, 5-cyclopropyl-2-((1-ethyl-2-phenyl-1H-indol-5-yl)amino)nicotinic acid]	≥ 20	10 to 100
CS(=O)(=O)NC(=O)c1cc(C2CC2)cnc1Nc1ccc2c(ccn2Cc2ccccc2)c1 [Example 149, 2-((1-benzyl-1H-indol-5-yl)amino)-5-cyclopropyl-N-(methylsulfonyl)nicotinamide]	≥ 20	10 to 100
Cn1cc(-c2ccccc2)c2cc(Nc3ncc(C4CC4)cc3C(=O)O)ccc21 [Example 153]	≥ 20	10 to 100
Cn1ccc2cc(Nc3ncc(C4CC4)cc3C(=O)O)cc(-c3cccc(-c4ccccc4)c3)c21 [Example 189, 2-((7-([1,1′-biphenyl]-3-yl)-1-methyl-1H-indol-5-yl)amino)-5-cyclopropylnicotinic acid]	≥ 20	≤ 10
Cc1ccc(Nc2ccc3c(ccn3Cc3ccccc3)c2)c(C(=O)O)c1 [Example 206, 2-((1-benzyl-1H-indol-5-yl)amino)-5-methylbenzoic acid]	≥ 20	≤ 10
O=C(O)c1cc(C2CC2)cnc1Nc1cccc2c1ccn2Cc1ccccc1 [Example 208, 2-((1-benzyl-1H-indol-4-yl)amino)-5-cyclopropylnicotinic acid]	≥ 20	10 to 100
Cn1ccc2cc(Nc3ncc(C4CC4)cc3C(=O)O)cc(-c3ccccc3)c21 [Example 222, 5-cyclopropyl-2-((1-methyl-7-phenyl-1H-indol-5-yl)amino)nicotinic acid]	≥ 20	≤ 10
CC(C)Cn1ccc2cc(Nc3ncc(C4CC4)cc3C(=O)O)cc(-c3ccccc3)c21 [Example 224, 5-cyclopropyl-2-((1-isobutyl-7-phenyl-1H-indol-5-0)amino)nicotinic acid]	≥ 20	≤ 10
O=C(O)c1cc(C2CC2)cnc1Nc1ccc2c(ccn2-c2ccc(F)cc2)c1 [Example 233, 5-cyclopropyl-2-((1-(4-fluorophenyl)-1H-indol-5-yl)amino)nicotinic acid]	≥ 20	≤ 10
COc1cccc(Cn2ccc3cc(Nc4ncc(C5CC5)cc4C(=O)O)ccc32)c1 [Example 237, 5-cyclopropyl-2-((1-(3-methoxybenzyl)-1H-indol-5-yl)amino)nicotinic acid]	≥ 20	10 to 100
O=C(O)c1cc(C2CC2)cnc1Nc1ccc2c(ccn2Cc2cccc(F)c2)c1 [Example 239, 5-cyclopropyl-2-((1-(3-fluorobenzyl)-1H-indol-5-yl)amino)nicotinic acid]	≥ 20	≤ 10
O=C(O)c1cc(C2CC2)cnc1Nc1ccc2c(ccn2Cc2ccc(F)cc2)c1 [Example 241, 5-cyclopropyl-2-((1-(4-fluorobenzyl)-1H-indol-5-yl)amino)nicotinic acid]	≥ 20	≤ 10
CC(C)c1cc(Nc2ncc(C3CC3)cc2C(=O)O)cc2ccn(C)c12 [Example 411, 5-cyclopropyl-2-((7-isopropyl-1-methyl-1H-indol-5-yl)amino)nicotinic acid]	≥ 20	10 to 100
O=C(O)c1cc(C2CC2)cnc1Nc1cccc2c1ccn2CC1CCC1 [Example 439, 2-((1-(cyclobutylmethyl)-1H-indol-4-yl)amino)-5-cyclopropylnicotinic acid]	≥ 20	≤ 10
CC(C)CCn1ccc2cc(Nc3ncc(C4CC4)cc3C(=O)O)ccc21 [Example 448, 5-cyclopropyl-2-(1-isopentyl-1H-indol-5-ylamino)nicotinic acid]	≥ 20	≤ 10
O=C(O)c1cc(C2CC2)cnc1Nc1ccc2c(ccn2Cc2cccc(C(F)(F)F)c2)c1 [Example 450, 5-cyclopropyl-2-((1-(3-(trifluoromethyl)benzyl)-1H-indol-5-yl)amino)nicotinic acid]	≥ 20	≤ 10
N#Cc1cccc(Cn2ccc3cc(Nc4ncc(C5CC5)cc4C(=O)O)ccc32)c1 [Example 453, 2-((1-(3-cyanobenzyl)-1H-indol-5-yl)amino)-5-cyclopropylnicotinic acid]	≥ 20	10 to 100
Cc1ccccc1Cn1ccc2cc(Nc3ncc(C4CC4)cc3C(=O)O)ccc21 [Example 455, 5-cyclopropyl-2-((1-(2-methylbenzyl)-1H-indol-5-yl)amino)nicotinic acid]	≥ 20	≤ 10
Cc1cccc(Cn2ccc3cc(Nc4ncc(C5CC5)cc4C(=O)O)ccc32)c1 [Example 456, 5-cyclopropyl-2-((1-(3-methylbenzyl)-1H-indol-5-yl)amino)nicotinic acid]	≥ 20	≤ 10
Cc1ccc(Cn2ccc3cc(Nc4ncc(C5CC5)cc4C(=O)O)ccc32)cc1 [Example 457, 5-cyclopropyl-2-((1-(4-methylbenzyl)-1H-indol-5-yl)amino)nicotinic acid]	≥ 20	≤ 10
O=C(O)c1cc(C2CC2)cnc1Nc1ccc2c(ccn2Cc2ccccc2F)c1 [Example 458, 5-cyclopropyl-2-((1-(2-fluorobenzyl)-1H-indol-5-yl)amino)nicotinic acid]	≥ 20	≤ 10
O=C(O)c1cc(Cl)cnc1Nc1ccc2c(ccn2Cc2cccc(F)c2)c1 [Example 645, 5-chloro-2-((1-(3-fluorobenzyl)-1H-indol-5-yl)amino)nicotinic acid]	–	10 to 100
Cn1cc(-c2ccccc2)c2cc(Nc3ncc(Cl)cc3C(=O)O)ccc21 [Example 647, 5-chloro-2-((1-methyl-3-phenyl-1H-indol-5-yl)amino)nicotinic acid]	–	10 to 100
